Legend:
Experiment in all cases: relative viability (nuclei count vs DMSO), 5 days (fraction); higher = more cells survive
SGI-1776 + Tozasertib = compound: CN1CCC(CNc2ccc3ncc(-c4cccc(OC(F)(F)F)c4)n3n2)CC1 [SGI-1776] + Cc1cc(Nc2cc(N3CCN(C)CC3)nc(Sc3ccc(NC(=O)C4CC4)cc3)n2)n[nH]1 [Tozasertib] (partner 0.1 µM)
In short: (§1)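 Medians of duplicate plates are given as relative viability. That measure is the nuclei count in treated wells divided by the count in vehicle wells. Counts were taken on 4× images of lung cancer cell lines in 1536-well plates, 5 days after pin-tool dosing the day after seeding with one drug alone or a fixed anchor-drug dose plus five library-drug doses (not always all listed) in √10 steps.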

Entinostat + Alpelisib = compound: Nc1ccccc1NC(=O)c1ccc(CNC(=O)OCc2cccnc2)cc1 [Entinostat] + Cc1nc(NC(=O)N2CCC[C@H]2C(N)=O)sc1-c1ccnc(C(C)(C)C(F)(F)F)c1 [Alpelisib] (partner 2 µM)
In short: as §1

Entinostat + Palbociclib = compound: Nc1ccccc1NC(=O)c1ccc(CNC(=O)OCc2cccnc2)cc1 [Entinostat] + CC(=O)c1c(C)c2cnc(Nc3ccc(N4CCNCC4)cn3)nc2n(C2CCCC2)c1=O [Palbociclib] (partner 0.5 µM)
In short: as §1

Entinostat + Decitabine = compound: Nc1ccccc1NC(=O)c1ccc(CNC(=O)OCc2cccnc2)cc1 [Entinostat] + Nc1ncn([C@H]2C[C@H](O)[C@@H](CO)O2)c(=O)n1 [Decitabine] (partner 2 µM)
In short: as §1

Cell Line	relative viability (SGI-1776 + Tozasertib; first compound 0.08 µM)	relative viability (SGI-1776 + Tozasertib; first compound 0.8 µM)	relative viability (SGI-1776 + Tozasertib; first compound 2.53 µM)	relative viability (SGI-1776 + Tozasertib; first compound 8 µM)	relative viability (Entinostat + Alpelisib; first compound 0.02 µM)	relative viability (Entinostat + Alpelisib; first compound 0.06325 µM)	relative viability (Entinostat + Alpelisib; first compound 0.2 µM)	relative viability (Entinostat + Alpelisib; first compound 0.6325 µM)	relative viability (Entinostat + Alpelisib; first compound 2 µM)	relative viability (Entinostat + Palbociclib; first compound 0.02 µM)	relative viability (Entinostat + Palbociclib; first compound 0.06325 µM)	relative viability (Entinostat + Palbociclib; first compound 0.2 µM)	relative viability (Entinostat + Palbociclib; first compound 0.6325 µM)	relative viability (Entinostat + Palbociclib; first compound 2 µM)	relative viability (Entinostat + Decitabine; first compound 0.02 µM)	relative viability (Entinostat + Decitabine; first compound 0.06325 µM)	relative viability (Entinostat + Decitabine; first compound 0.2 µM)	relative viability (Entinostat + Decitabine; first compound 0.6325 µM)	relative viability (Entinostat + Decitabine; first compound 2 µM)
NCI-H2228	0.253	0.145	0.117	0.148	0.785	0.608	0.473	0.325	0.273	0.617	0.747	0.691	0.35	0.244	–	–	–	–	–
NCI-H2342	0.668	0.456	0.504	0.357	–	–	–	–	–	0.528	0.523	0.53	0.49	0.485	0.806	0.704	0.65	0.607	0.557
NCI-H1792	–	–	–	–	0.752	0.673	0.543	0.381	0.223	0.709	0.745	0.723	0.626	0.523	0.613	0.505	0.48	0.354	0.196
NCI-H1563	–	–	–	–	0.908	0.883	0.826	0.807	0.636	–	–	–	–	–	–	–	–	–	–
NCI-H1650	0.374	0.287	0.214	0.226	–	–	–	–	–	0.352	0.299	0.334	0.283	0.162	0.381	0.394	0.43	0.258	0.273
NCI-H522	0.654	0.557	0.502	0.523	–	–	–	–	–	1.01	1.15	1.13	1.01	0.97	0.65	0.684	0.693	0.666	0.639
IA-LM	–	–	–	–	0.706	0.741	0.98	0.566	0.481	–	–	–	–	–	–	–	–	–	–
SW 900	0.693	0.608	0.467	0.222	–	–	–	–	–	0.547	0.582	0.576	0.509	0.344	0.429	0.419	0.391	0.302	0.286
CAL-12T	0.3	0.216	0.234	0.205	1.22	1.18	1.41	1.08	0.962	0.516	0.602	0.637	0.384	0.266	–	–	–	–	–
EBC-1	–	–	–	–	0.832	0.984	0.542	0.179	0.116	–	–	–	–	–	–	–	–	–	–
NCI-H596	1.07	1.04	0.792	0.577	0.533	0.496	0.272	0.411	0.356	–	–	–	–	–	0.9	1.11	0.869	1.01	0.66
